For series [1], the target named is histone deacetylase (HeLa nuclear extracts). Description: In vitro assay for inhibition of histone deacetylase (HDAC Fluorescent Activity Assay, Fluor de Lys). Format: biochemical. The settings on record: HeLa nuclear extracts 60 μg/ml, 75 μM Fluor de Lys substrate, example C.1. From the text:
The in vitro assay for inhibition of histone deacetylase (see example C.1) measures the inhibition of HDAC enzymatic activity obtained with the compounds of formula (I).
The HDAC Fluorescent Activity Assay/Drug Discovery Kit of Biomol (cat.No: AK-500-0001) was used. The HDAC Fluorescent Activity Assay is based on the Fluor de Lys (Fluorogenic Histone deAcetylase Lysyl) substrate and developer combination. The Fluor de Lys substrate, comprises an acetylated lysine side chain. Deacetylation of the substrate sensitizes the substrate so that, in the second step, treatment with the Fluor de Lys developer produces a fluorophore.
HeLa nuclear extracts (supplier: Biomol) were incubated at 60 μg/ml with 75 μM of substrate. The Fluor de Lys substrate was added in a buffer containing 25 mM Tris, 137 mM NaCl, 2.7 mM KCl and 1 mM MgCl2.6H2O at pH 7.4. After 30 min, 1 volume of the developer was added. The fluorophore was excited with 355 nm light and the emitted light (450 nm) was be detected on a fluorometric plate reader.
For each experiment, controls (containing HeLa nuclear extract and buffer), a blank incubation (containing buffer but no HeLa nuclear extract) and samples (containing compound dissolved in DMSO and further diluted in buffer and HeLa nuclear extract) were run in parallel. In first instance, compounds were tested at a concentration of 10^−5M. […] All sample were tested 4 times. In each test the blank value was subtracted from both the control and the sample values. The control sample represented 100% of substrate deactylation. For each sample the fluorescence was expressed as a percentage of the mean value of the controls. […] Herein the effects of test compounds are expressed as pIC50 (the negative log value of the IC50-value) (see Table F-3).

The subject of series [2] is human A2780 ovarian carcinoma cells. Description: Antiproliferative activity on A2780 cells (MTT). The settings on record: 96 h, four days of incubation, example C.2, read-out: Cellular activity pIC50 (converted). Format: cell-based. The procedure:
All compounds tested were dissolved in DMSO and further dilutions were made in culture medium. Final DMSO concentrations never exceeded 0.1% (v/v) in cell proliferation assays. Controls contained A2780 cells and DMSO without compound and blanks contained DMSO but no cells. MTT was dissolved at 5 mg/ml in PBS.
Cells were routinely kept as monolayer cultures at 37° C. in a humidified 5% CO2 atmosphere. Cells were passaged once a week using a trypsin/EDTA solution at a split ratio of 1:40. All media and supplements were obtained from Life Technologies. Cells were free of mycoplasma contamination as determined using the Gen-Probe Mycoplasma Tissue Culture kit (supplier: BioMerieux).
Cells were seeded in NUNC™ 96-well culture plates (Supplier: Life Technologies) and allowed to adhere to the plastic overnight. Densities used for plating were 1500 cells per well in a total volume of 200 μl medium. After cell adhesion to the plates, medium was changed and drugs and/or solvents were added to a final volume of 200 μl. Following four days of incubation, medium was replaced by 200 μl fresh medium and cell density and viability was assessed using an MTT-based assay. To each well, 25 μl MTT solution was added and the cells were further incubated for 2 hours at 37° C. The medium was then carefully aspirated and the blue MTT-formazan product was solubilized by addition of 25 μl glycine buffer followed by 100 μl of DMSO. […] Within an experiment, the results for each experimental condition are the mean of 3 replicate wells. […] For each experiment, controls (containing no drug) and a blank incubation (containing no cells or drugs) were run in parallel. The blank value was subtracted from all control and sample values. For each sample, the mean value for cell growth (in absorbance units) was expressed as a percentage of the mean value for cell growth of the control. […] Herein the effects of test compounds are expressed as pIC50 (the negative log value of the IC50-value)(see Table F-3).

Turning to `O=C(NO)c1cnc(N2CCOC(Cn3ccn(-c4ccc(F)cc4)c3=O)C2)nc1` (centres unmarked) [Compound 20], the “Enzyme activity pIC50” value in series [1] came to 7.3. The IC50 in series [2] was 501 nM.

For the molecule `O=C(NO)c1cnc(N2CCC(Cn3ccn(-c4cccc(C(F)(F)F)c4)c3=O)CC2)nc1` [Compound 23], the “Enzyme activity pIC50” value in series [1] is listed as 7.2. The IC50 in series [2] is 1260 nM.

As to `COc1cc(OC)cc(-n2ccn(CC3CCN(c4ncc(C(=O)NO)cn4)CC3)c2=O)c1` [Compound 26], the “Enzyme activity pIC50” value in series [1] is listed as 7.4. Further, the IC50 in series [2] is 501 nM.

As to `COc1ccc(-n2ccn(CC3CN(c4ncc(C(=O)NO)cn4)CCO3)c2=O)cc1` (centres unmarked) [Compound 18], the “Enzyme activity pIC50” value in series [1] was 7.2. Further, the IC50 in series [2] was 1260 nM.

In the case of `O=C(NO)c1cnc(N2CCC(Cn3ccn(-c4ccc(F)cc4)c3=O)CC2)nc1` [Compound 4], the “Enzyme activity pIC50” value in series [1] is 7.6. The IC50 in series [2] is 631 nM.

Consider `O=C(NO)c1cnc(N2CCC(Cn3ccn(-c4ccc(-c5ccccc5)cc4)c3=O)CC2)nc1` [Compound 3], for which the “Enzyme activity pIC50” value in series [1] stood at 7.8. In series [2], the IC50 is 79.4 nM.

In the case of `COc1ccc(-n2ccn(CC3CN(c4ncc(C(=O)NO)cn4)CCO3)c2=O)cc1OC` (centres unmarked) [Compound 13], the “Enzyme activity pIC50” value in series [1] was determined as 7.3. Further, the IC50 in series [2] is 794 nM.

As for `O=C(NO)c1cnc(N2CCC(Cn3ccn(-c4ccc(Oc5ccccc5)cc4)c3=O)CC2)nc1` [Compound 2], in series [1], the “Enzyme activity pIC50” value is reported as 7.5. Moreover, the IC50 in series [2] is 126 nM.

For `O=C(NO)c1cnc(N2CCC(CN3CCN(c4cccc5ccccc45)C3=O)CC2)nc1` [Compound 1], the “Enzyme activity pIC50” value in series [1] amounted to 7.1. Also, the IC50 in series [2] is 1000 nM.

Turning to `COc1cc(-n2ccn(CC3CCN(c4ncc(C(=O)NO)cn4)CC3)c2=O)cc(OC)c1OC` [Compound 25], the “Enzyme activity pIC50” value in series [1] is on record as 7.4. For the same molecule, in series [2], the IC50 was 631 nM.

Take `COc1cc(-n2ccn(CC3CN(c4ncc(C(=O)NO)cn4)CCO3)c2=O)cc(OC)c1OC` (centres unmarked) [Compound 16]: the “Enzyme activity pIC50” value in series [1] amounted to 7.2. In addition, the IC50 in series [2] is 1260 nM.

`N#Cc1ccc(N2C(=O)C(c3ccccc3)N(CC3CCN(c4ncc(C(=O)NO)cn4)CC3)C2=O)cc1` (centres unmarked) [Compound 5] showed a melting point of 187 °C. Further, the “Enzyme activity pIC50” value in series [1] worked out at 7.1. For the same molecule, the IC50 in series [2] is 631 nM.

On to `O=C(NO)c1cnc(N2CCC(Cn3ccn(-c4ccccc4)c3=O)CC2)nc1` [Compound 32], for which, in series [1], the “Enzyme activity pIC50” value worked out at 6.6. In addition, the IC50 in series [2] is 1000 nM.

Turning to `CC1C(=O)N(c2ccc(-c3ccccc3)cc2)C(=O)N1CC1CCN(c2ncc(C(=O)NO)cn2)CC1` (centres unmarked) [Compound 6], the melting point came to 169 °C. Moreover, the “Enzyme activity pIC50” value in series [1] stood at 7.2. For the same molecule, the IC50 in series [2] is 501 nM.

Turning to `O=C(NO)c1cnc(N2CCC(Cn3ccn(-c4cccc(F)c4)c3=O)CC2)nc1` [Compound 30], in series [1], the “Enzyme activity pIC50” value stood at 7.5. Moreover, the IC50 in series [2] is 631 nM.

As to `Cc1ccc(-n2ccn(CC3CCN(c4ncc(C(=O)NO)cn4)CC3)c2=O)cc1` [Compound 31], in series [1], the “Enzyme activity pIC50” value is 7.7. The IC50 in series [2] was 631 nM.

`COc1ccc(-n2ccn(CC3CCN(c4ncc(C(=O)NO)cn4)CC3)c2=O)cc1OC` [Compound 27]: in series [1], the “Enzyme activity pIC50” value is 7.5. Besides, the IC50 in series [2] was 631 nM.

For `Cc1[nH]c2ccccc2c1CCn1ccn(CC2CCN(c3ncc(C(=O)NO)cn3)CC2)c1=O` [Compound 35], the melting point was 246 °C. For the same molecule, the “Enzyme activity pIC50” value in series [1] was found to be 7.9. Further, in series [2], the IC50 was 501 nM.

In the case of `Cc1cccc(-n2ccn(CC3CN(c4ncc(C(=O)NO)cn4)CCO3)c2=O)c1` (centres unmarked) [Compound 14], the “Enzyme activity pIC50” value in series [1] amounted to 6.8. Moreover, the IC50 in series [2] was 6310 nM.

For the molecule `COc1cccc(-n2ccn(CC3CCN(c4ncc(C(=O)NO)cn4)CC3)c2=O)c1` [Compound 29], the “Enzyme activity pIC50” value in series [1] came out at 7.7. The IC50 in series [2] was 631 nM.

For `O=C(NO)c1cnc(N2CCOC(Cn3ccn(-c4cccc(C(F)(F)F)c4)c3=O)C2)nc1` (centres unmarked) [Compound 15], in series [1], the “Enzyme activity pIC50” value came out at 7.3. Moreover, in series [2], the IC50 was 1260 nM.

`O=C(NO)c1cnc(N2CCOC(Cn3ccn(-c4cccc(F)c4)c3=O)C2)nc1` (centres unmarked) [Compound 21]: the “Enzyme activity pIC50” value in series [1] was found to be 7.4. The IC50 in series [2] was 501 nM.

On to `O=C(NO)c1cnc(N2CCOC(Cn3ccn(-c4ccccc4)c3=O)C2)nc1` (centres unmarked) [Compound 12], for which the “Enzyme activity pIC50” value in series [1] turned out to be 7.5. In series [2], the IC50 was 631 nM.

As to `CC1C(=O)N(c2ccc(C#N)cc2)C(=O)N1CC1CCN(c2ncc(C(=O)NO)cn2)CC1` (centres unmarked) [Compound 36], the melting point is 135 °C. Moreover, the “Enzyme activity pIC50” value in series [1] is given as 7.0. Further, the IC50 in series [2] is 1580 nM.

With `O=C(NO)c1cnc(N2CCC(Cn3ccn(-c4ccc5c(c4)OCCOCCOCCOCCO5)c3=O)CC2)nc1` [Compound 24], the “Enzyme activity pIC50” value in series [1] is recorded as 7.4. In addition, the IC50 in series [2] is 631 nM.

As to `O=C(NO)c1cnc(N2CCC(CN3CCN(c4ccc(Oc5ccccc5)cc4)C3=O)CC2)nc1` [Compound 10], the “Enzyme activity pIC50” value in series [1] came out at 7.2. The IC50 in series [2] was 2510 nM.

As for `COc1ccc(-n2ccn(CC3CCN(c4ncc(C(=O)NO)cn4)CC3)c2=O)cc1` [Compound 28], in series [1], the “Enzyme activity pIC50” value was 7.6. The IC50 in series [2] was 631 nM.

Take `Cc1ccc(-n2ccn(CC3CN(c4ncc(C(=O)NO)cn4)CCO3)c2=O)cc1` (centres unmarked) [Compound 22]: the “Enzyme activity pIC50” value in series [1] turned out to be 7.2. For the same molecule, in series [2], the IC50 is 5010 nM.

In the case of `O=C(NO)c1cnc(N2CCC(CN3CCN(c4ccc(-c5ccccc5)cc4)C3=O)CC2)cn1` [Compound 11], the “Enzyme activity pIC50” value in series [1] is recorded as 7.3. Further, the IC50 in series [2] is 631 nM.

Source of the values: patent US20100160321A1, “IMIDAZOLINONE AND HYDANTOINE DERIVATIVES AS NOVEL INHIBITORS OF HISTONE DEACETYLASE” (priority 2005, published 2010).
